The record followed here is US4271189A, “Lithium derivatives of taurine having reinforced neuro-muscular activity” (Les Laboratoires Meram, priority 1977, dated 1981).

A word on the LD50: it is the dose expected to kill half of the subjects tested.

Structures can show the parent of a compound that is named as a salt. Where two headings read alike, the source gives them in different places.

Series [1] is described as follows: Acute toxicity (LD50) in the male mouse, intraperitoneal and oral routes. The source says:
The acute toxicity of the compounds according to the invention was studied by the intraperitoneal route in the male mouse. The results obtained were as follows:
The value of lithium salts in the treatment of depressions and in particular of manic-depressive psychosis, is well-known. But the major disadvantage of this therapy resides in the toxicity of the currently known salts (carbonate, citrate, gluconate).

The nature of series [2]: Investigation behaviour of the mouse, "Holed board" test. Type of series: in vivo. The source says: (§1) 1. The investigation behaviour of the mouse was studied by the "Holed board" test (Boissier and Simon; Arch. Int. Pharmacodyn. 1964, 147, 3-4),
Series [3] in a line: Spontaneous motility of the mouse, Boissier's photoelectric actimeter. The format is in vivo. From the text: (§2) 2. The study of the spontaneous motility of the mouse was made by using Boissier's photoelectric actimeter.
Series [4] is described as follows: Motility of mice after amphetamine-acetyl-taurinate interaction (photoelectric actimeter). The format is in vivo. The settings on record: mouse, with 10 mg/kg IP dextrorotatory amphetamine. As to the method: (§3) 3. The study of the motility of the mice was also made by using Boissier's photoelectric actimeter, after amphetamine-acetyl-taurinate interaction according to the invention: the mice are treated simultaneously with 10 mg/kg (IP) of dextrorotatory amphetamine and with an optimal dose of acetyltaurinate.

Series [5] in a line: Neuro-muscular activity in the six pharmacological tests (summary). The format is in vivo. The following applies: mouse and rat. The method, then:
as §1, §2, §3
(§4) 4. A study of the hypothermia in the mouse was effected by determining the rectal temperature of the mice 30 mins. before the intraperitoneal administration of the product, at the moment of this administration, then 30 mins., 1 hour, 2, 3 and 4 hrs. after the injection of the product.
(§5) 5. The study of the hypothermia after amphetamine-acetyl-taurinate interaction according to the invention was made according to the same method as previously in the mouse, the animals being treated simultaneously with 30 mg/kg (IP) of dextrorotatory amphetamine and with an optimal dose of the product to be tested.
(§6) 6. A test was also made of the appetite- and thirst-depressant activities in the rat.

A short description of series [6]: Minimum lethal dose by intravenous route in male rabbits. Type of series: in vivo, male rabbit. The method, then:
This reduction of acute toxicity was confirmed by the evaluation of the minimum lethal dose by intraveinous route in male rabbits, comparatively beween lithium citrate and lithium N-acetyltaurinate:
In the same experimental conditions, the minimum lethal dose is 42 mg of lithium with lithium citrate, and 204 mg lithium with lithium N-acetyltaurinate.

Series [7] can be described thus: Chronic toxicity in rats over three months, renal histology. Type of series: in vivo, rat. The method, then: A study of the chronic toxicity in rats was conducted comparatively between lithium N-acetyltaurinate and lithium carbonate:
For three months, rats received doses of 8 mg/Kg and 24 mg/Kg per day of lithium, first in the form or lithium carbonate, and in the form of lithium N-acetyltaurinate.

Series [8] is described as follows: Hypothermia in the mouse (rectal temperature). Type of series: in vivo. The settings on record: for hypothermia / reduction in the rectal temperature: intraperitoneal. As to the method: as §4
Series [9] in a line: Hypothermia after amphetamine-acetyl-taurinate interaction in the mouse. The format is in vivo. As to the method:
as §5

Series [10] can be described thus: Appetite- and thirst-depressant activities in the rat. The format is in vivo.
Excerpt: as §6

Series [11] can be described thus: Test of morphinic agitation in mice. The format is in vivo, mouse. The settings on record: for effect type in the morphinic agitation test: 5-day treatment, 100, 500 and 2500 mg/Kg per os. The source says: Furthermore, the neuro-muscular activity of the lithium N-acetyltaurinate has been evaluated in comparison with that of taurine and of the other salts of N-acetyltaurine, using the test of morphinic agitation.

The conditions of series [12]: in vivo.
Series [13] is described as follows: Human observation: neuromuscular hyperexcitability. The format is in vivo. The source says: The following observation is given by way of example: a person has been treated for 7 years for a neuromuscular hyperexcitability,with a wide range of neuro-vegetative disorders. They present critical phenomena of lipothymia type, anxious crises with paroxysmal tachycardia. They have had four grand mal epileptic crises.
(§7) A person . . . […] 2 suicide attempts. Predominance of psychomotive inhibition. […] a person . . .

A short description of series [14]: Human observation: chronic alcoholism with predelirium. Type of series: in vivo.
Excerpt: as §7

Series [15] in a line: Human observation: bipolar manic-depressive psychosis, lithemia and mood. The following applies: one patient.
The mark [16] stands for this setting: listed as N-acetyl-taurinate of potassium.
Where [17] appears, read: listed as N-acetyl-taurinate of lithium.
The mark [18] stands for this setting: listed as N-acetyltaurinate of calcium.

With `CC(=O)NCCS(=O)(=O)O` [Example 2, N-acetyl-taurinate of potassium], the LD50 in [1] (intraperitoneal route, male mouse, mg of compound, listed as N-acetyltaurinate of potassium) came to 3234 mg/kg; in series [1] (oral route, male mouse, mg of compound, listed as N-acetyltaurinate of potassium), 8170 mg/kg. Further, the “investigation behaviour / exploratory activity” value in series [2] (setting [16]) was “increase in the investigation behaviour in the mouse, not proportional to the dose”. Further, in series [3] (dose not stated, listed as N-acetyl-taurinate of potassium), the motive agitation entry is “slight increase”. Further, in [4] (setting [16]), the amphetaminic excitation entry is listed as “reduction”. Moreover, the “neuro-muscular activity in six tests” value in [5] was “neuro-muscular activity has been demonstrated”.
For the compound `CC(=O)NCCS(=O)(=O)O` [Example 3, N-acetyl-taurinate of lithium], in series [1] (male mice, intraperitoneal and oral routes), the “acute toxicity compared with that of lithium carbonate” value was “clearly reduced acute toxicity”. The LD50 in series [1] (mouse, in vivo, ip, LD50) is 3880 mg/kg; in series [1] (mouse, in vivo, ip, LD50 in the male mouse, intraperitoneal route), 155 mg/kg; in series [1] (mouse, in vivo, po, LD50), 6630 mg/kg; in series [1] (mouse, in vivo, po, LD50 in the male mouse) it was 266 mg/kg. The minimum lethal dose in series [6] is 204 mg of lithium. Besides, in [7] (conclusion from acute and chronic toxicity studies), the “toxicity with respect to lithium carbonate (acute and chronic renal)” value is reported as “less toxic”. The “tubular renal lesions thirty days after the treatment has stopped” value in series [7] (rat, in vivo) is listed as “a reversion of the lesions is noted in all the animals”. In addition, the “investigation behaviour / exploratory activity” value in [2] (setting [17]) is reported as “very clear increase”. In addition, the “motility in free condition” value in series [3] was “very clear increase”. The motive agitation result in series [3] (dose not stated, listed as N-acetyl-taurinate of lithium) was “increase”. Besides, the amphetaminic excitation entry in series [4] (setting [17]) is given as “increase”. Also, in series [8] (setting [17]), the “hypothermia / reduction in the rectal temperature” value was “significant hypothermia”. Besides, in series [9] (with 30 mg/kg IP dextrorotatory amphetamine), the “hypothermia after simultaneous injection of amphetamine” value is “completely eliminated”. Also, the “appetite- and thirst-depressant actions” value in [10] was “very clear appetite- and thirst-depressant actions”. Further, the “taking of food and drink consumed” value in series [10] is “very substantial reduction”. Moreover, the “potentiation of the morphinic agitation” value in series [11] (100 mg/Kg per os, between the 75th and the 90th minute) worked out at 45%. Also, in series [11] (listed as lithium acetyltaurinate), the “effect type in the morphinic agitation test” value (shortened to “effect type”) was “biphasic effect”. Besides, the “effect on the agitation caused by morphine sulphate” value in series [11] (stronger doses (500 and 2500 mg/Kg) per os) is on record as “antagonistic effect”. The “stability of the mood” value in series [12] was “same stability of the mood”.
`CC(=O)NCCS(=O)(=O)O` [Example 4, N-acetyl-taurinate of magnesium]: the LD50 in series [1] (intraperitoneal route, male mouse, mg of compound, listed as N-acetyltaurinate of magnesium) is listed as 1709 mg/kg; in [1] (oral route, male mouse, mg of compound, listed as N-acetyltaurinate of magnesium), 17400 mg/kg. Besides, the motive agitation result is “very clear reduction” in [3] (high dose (200 mg/kg)) and “increase” in [3] (low dose (100 mg/kg), listed as N-acetyl-taurinate of magnesium, 100 mg/kg). Moreover, in series [4] (listed as N-acetyl-taurinate of magnesium), the amphetaminic excitation result is given as “reduction”. For the same compound, the “reduction in the maximum rectal temperature” value in [8] (2 hours after the injection) is “very considerable reduction”. The “reduction of rectal temperature after simultaneous injection of amphetamine” value in series [9] (with amphetamine, 1 hour after the injection) is “completely eliminated”. The “effect type” value in series [11] (listed as Mg) is reported as “mono-phasic effect, antagonistic to the morphinic agitation even in small doses”. Also, in series [13] (venous perfusion 1 g first ten days with 1.5 g/day per os), the “general state of the patient” value is given as “complete recovery of the general state”. In [13] (verified with a recession of 13 months), the critical phenomena result is “disappearance of the critical phenomena”.
`CC(=O)NCCS(=O)(=O)O` [Example 5, N-acetyl-taurinate of calcium]: the LD50 in series [1] (intraperitoneal route, male mouse, mg of compound, listed as N-acetyltaurinate of calcium) is on record as 1604 mg/kg. The LD50 in [1] (oral route, male mouse, mg of compound, listed as N-acetyltaurinate of calcium) came out at 13230 mg/kg. In series [2] (setting [18]), the “investigation behaviour / exploratory activity” value was “increase”. For the same compound, the motive agitation result in [3] (low dose (100 mg/kg), listed as N-acetyltaurinate of calcium, 100 mg/kg) was “reduction”. In series [4] (setting [18]), the amphetaminic excitation entry was “does not modify”. The “hypothermia / reduction in the rectal temperature” value in series [8] (setting [18]) is given as “significant reduction”. Further, in series [9] (amphetamine interaction), the hyperthermia result was “does not modify”. For the same compound, in series [11] (listed as Ca), the “effect type” value was “mono-phasic effect, antagonistic to the morphinic agitation even in small doses”. Further, in [14] (1.5 g daily oral), the alcoholic weaning result is “upkept”, the intellectual efficiency entry is given as “improved” and the tremblings entry is listed as “considerably reduced”. The “effect on attack of mental aberration with convulsions” value in series [14] (venous perfusion 1 g per hour for three hours) was “sedation of the attack with a state of euphoria”.
`O=C(O)O` [Lithium carbonate, reference compound]: the LD50 in series [1] (mouse, in vivo, ip) is 88 mg/kg; in series [1] (mouse, in vivo, po), 162 mg/kg. Besides, the “tubular renal lesions (histological study)” value in series [7] (rats, 8 and 24 mg/Kg per day of lithium, three months) was “tubular renal lesions appear in all the treated animals”. For the same compound, the “tubular renal lesions thirty days after the treatment has stopped” value in series [7] (rats, dose of 24 mg of lithium per Kg, 30 days after stop) is “the lesions persist”. In addition, the lithemia in series [15] (1 g/day) was at most 0.5 meq/liter. Also, the signs of intolerance entry in series [15] (increased dose) is reported as “permanent tremblings: nauseas, vomitings, hypotension”. In addition, the “stability of the mood” value in [15] is recorded as “a stability of the mood is obtained”.
As for `O=C(O)CC(O)(CC(=O)O)C(=O)O` [lithium citrate, reference compound], in series [6], the minimum lethal dose is reported as 42 mg of lithium.
`O=C([O-])[C@H](O)[C@@H](O)[C@H](O)[C@H](O)CO.[Li+]` [lithium gluconate, reference compound]: the “effect on the morphinic agitation relative to lithium acetyltaurinate at 100 mg/Kg” value in series [11] (potentiation in small doses) is reported as “comparable”.
For `NCCS(=O)(=O)O` [taurine], the “neuro-muscular activity in six tests” value in [5] is “without any activity”. The “effect type” value in [11] is recorded as “no effect”.
